Data reported in the supplement of paper PMC10949913.
Where “and” joins values, the source holds several entries; their conditions need not be identical. Identical values can stand only once.

Key:
Conditions in all cases: 48 h
CU-ACC2 [1] = test: area under concentration-response curve (viability) (AUC (a.u.)); higher = less active
Summary of the method: (§1)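 AC50 and area under the curve values derive from fitted concentration-response curves, restricted to inhibitory or non-responding curve classes. The curves came from three adrenocortical carcinoma cell lines in 1,536-well plates, each receiving 23 nL of every library compound at 11 concentrations. Viability was read by CellTiter-Glo luminescence after 48 h, normalised per plate to vehicle and empty-well controls.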

CU-ACC1 [2] = test: as above
Summary of the method: as §1

NCI-H295R [3] = test: as above
Summary of the method: as §1

CU-ACC2 [4] = test: AC50 viability; higher = less potent
Summary of the method: as §1

CU-ACC1 [5] = test: AC50 viability; higher = less potent
Summary of the method: as §1

NCI-H295R [6] = test: AC50 viability; higher = less potent
Summary of the method: as §1

SMILES | area under concentration-response curve (CU-ACC2 [1]) | area under concentration-response curve (CU-ACC1 [2]) | area under concentration-response curve (NCI-H295R [3]) | AC50 viability (CU-ACC2 [4]) | AC50 viability (CU-ACC1 [5]) | AC50 viability (NCI-H295R [6])
Cc1cc(O[C@@H](CCC(F)(F)F)c2ccc(C(=O)NCCC(=O)O)cc2)cc(C)c1-c1ccc(C(C)(C)C)cc1 | 409 | 382 | 384 | 23.5 µM | 18.6 µM | 11.8 µM
CNc1nccc(-c2cccnc2Oc2cc(C(=O)Nc3cccc(C(F)(F)F)c3)ccc2C)n1 | 494 | 461 | 465 | 18.6 µM | 14.8 µM | 18.6 µM
NC1(Cc2ccc(Cl)cc2)CCN(c2ncnc3[nH]ccc23)CC1 | 540 | 444 | 461 | 18.6 µM | 16.6 µM | 14.8 µM
C=CC(=O)Nc1cccc(Oc2nc(Nc3ccc(N4CCN(C)CC4)cc3)ncc2Cl)c1 | 402 | 428 | 431 | 9.34 µM | 8.33 µM | 5.9 µM
C=CCNC1=C2C[C@@H](C)C[C@H](OC)[C@H](O)[C@@H](C)/C=C(\C)[C@H](OC(N)=O)[C@@H](OC)/C=C\C=C(/C)C(=O)NC(=CC1=O)C2=O | 418 | 433 | 515 | 13.2 µM | 10.5 µM | 37.2 µM
COc1cc(C(=O)N2CCC(N3CCN(C)CC3)CC2)ccc1Nc1ncc2c(n1)N(C)c1ccccc1C(=O)N2C | 423 | 377 | 389 | 20.9 µM | 26.3 µM | 16.6 µM
COc1ccc([S+](=O)([O-])N(CCO)c2ccccc2CN(C)C/C=C/c2ccc(Cl)cc2)cc1 | 539 | 436 | 425 | 23.5 µM | 14.8 µM | 20.9 µM
Nc1ccc(C(=O)c2cc3c(ccc4ccccc43)[nH]2)cc1 | 471 | 466 | 419 | 38.2 µM | 6.05 µM | 12.1 µM
COc1cc(C(=O)NC2CCN(C)CC2)c(F)cc1Nc1ncc2c(n1)N(C1CCCC1)CC(F)(F)C(=O)N2C | 393 | 412 | 400 | 14.8 µM | 16.6 µM | 4.68 µM
COc1cc(CCc2cc(NC(=O)c3ccc(N4C[C@@H](C)N[C@@H](C)C4)cc3)n[nH]2)cc(OC)c1 | 522 | 445 | 477 | 11.8 µM | 10.5 µM | 9.34 µM
CC(C)c1c2cc(-c3ccnc(N[C@H]4CC[C@H](NC5CCOCC5)CC4)n3)ccc2nn1C | 376 | 333 | 380 | 0.263 µM | 0.372 µM | 0.417 µM
CCOC1=CC=CC=C1N\2C(=O)C3=C(C=CC=C3)\N=C2C(C)N4CCN(CC4)C(=O)COC5=CC=C(Cl)C=C5 (stereo not drawn) | 509 | 373 | 448 | 2.95 µM | 0.934 µM | 5.9 µM
C=CC(=O)Nc1ccc2ncnc(Nc3cccc(Br)c3)c2c1 | 375 | 360 | 409 | 14.8 µM | 13.2 µM | 0.372 µM
O=C(Nc1ccnc(NC(=O)C2CC2)c1)c1c(Cl)cccc1Cl | 463 | 390 | 479 | 4.17 µM | 9.34 µM | 18.6 µM
Nc1nc(Nc2ccc([S+](N)(=O)[O-])cc2)nn1C(=O)c1c(F)cccc1F | 466 | 443 | 488 | 3.32 µM | 11.8 µM | 20.9 µM
CCCCNc1ncc2c(-c3ccc(F)cc3)nn(C[C@H]3CC[C@H](N)CC3)c2n1 | 611 | 523 | 550 | 14.4 µM | 14.4 µM | 14.4 µM
c1ccc(-c2ccc(CNc3nc(-c4ccccn4)nnc3-c3ccccc3)cc2)cc1 | 504 | 385 | 461 | 14.8 µM | 2.35 µM | 4.17 µM
CC(C)(O)/C=C\C(=O)[C@](C)(O)[C@H]1[C@H](O)C[C@]2(C)[C@@H]3CC=C4[C@@H](C=C(O)C(=O)C4(C)C)[C@]3(C)C(=O)C[C@@]12C | 377 | 316 | 406 | 0.332 µM | 0.372 µM | 5.25 µM
CC(=O)c1ccc2c(c1)c1cc(C(C)=O)ccc1n2CCNC(C)C | 415 | 405 | 421 | 2.95 µM | 2.09 µM | 2.35 µM
Cc1cc(-c2ccc(CC(=O)Nc3ccc(-c4cccnc4)cc3)cc2)ccn1 | 460 | 435 | 440 | 23.5 µM | 20.9 µM | 16.6 µM
Cc1ccc2nc(NCCN)c3ncc(C)n3c2c1 | 369 | 413 | 423 | 10.5 µM | 14.8 µM | 14.8 µM
COCCOc1nc(-c2ccc(Cl)c(Cl)c2)n(-c2ccc(NC(=O)CCl)cc2)n1 | 415 | 383 | 391 | 3.72 µM | 5.25 µM | 3.72 µM
CC[C@H](CC#N)OC(=O)N[C@@H](C)c1cccc(NC(=O)Nc2ccc(-c3cnco3)c(OC)c2)c1 | 530 | 456 | 489 | 5.9 µM | 5.9 µM | 2.09 µM
CC(C)CNc1ccnc(NCc2csc(-c3ccccc3)n2)n1 | 591 | 445 | 531 | 23.5 µM | 3.72 µM | 16.6 µM
CCOC(=O)CCNc1cc(N2CCc3ccccc3CC2)nc(-c2ccccn2)n1 | 534 | 384 | 444 | 16.6 µM | 3.32 µM | 3.72 µM
O=C1NCCc2[nH]c(-c3ccncc3)cc21 | 406 | 338 | 423 | 1.86 µM | 3.32 µM | 4.68 µM
CCn1nnc2c(N3CCOCC3)nc(-c3ccc(NC(=O)Nc4ccc(C(=O)N5CCN(C)CC5)cc4)cc3)nc21 | 434 | 357 | 453 | 0.468 µM | 1.18 µM | 5.9 µM

SMILES | area under concentration-response curve (CU-ACC2 [1]) | area under concentration-response curve (CU-ACC1 [2]) | area under concentration-response curve (NCI-H295R [3]) | AC50 viability (CU-ACC2 [4]) | AC50 viability (CU-ACC1 [5]) | AC50 viability (NCI-H295R [6])
CC[S+]([O-])(=O)NC1=CC(=C(OC2=C(F)C=C(F)C=C2)C=C1)\C3=C\N(C)C(=O)C4=C3C=C[NH]4 | 493 | 416 | 463 | 13.2 µM | 10.5 µM | 5.9 µM
NC(=O)c1cnc(N[C@@H]2CCCC[C@@H]2N)nc1Nc1cccc(-n2nccn2)c1 | 572 | 492 | 519 | 20.9 µM | 23.5 µM | 20.9 µM
C=CC(=O)Nc1cc(Nc2nccc(-c3cn(C)c4ccccc34)n2)c(OC)cc1N(C)CCN(C)C | 432 | 393 | 408 | 10.5 µM | 9.34 µM | 9.34 µM
CC(C)[C@@H](N(CCCN)C(=O)C1=CC=C(C)C=C1)C/2=N/C3=CC(=CC=C3C(=O)N2CC4=CC=CC=C4)Cl | 567 | 440 | 410 | 26.3 µM | 20.9 µM | 5.9 µM
C/C=C1\NC(=O)[C@H]2CSSCC/C=C\[C@H](CC(=O)N[C@H](C(C)C)C(=O)N2)OC(=O)[C@H](C(C)C)NC1=O | 224 | 235 | 293 | 0.0235 µM | 0.00742 µM | 0.118 µM
CN(C)CCN(C)C(=O)c1ccc(NC(=O)Nc2ccc(-c3nc(N4CCOCC4)c4ccn(CC(F)(F)F)c4n3)cc2)cc1 | 307 | 307 | 354 | 3.72 µM | 4.68 µM | 5.9 µM
Cc1n[nH]c2ccc(-c3cncc(OC[C@@H](N)Cc4ccccc4)c3)cc12 | 342 | 305 | 294 | 1.18 µM | 1.48 µM | 2.35 µM
COc1cccc2c1C(=O)c1c(O)c3c(c(O)c1C2=O)C[C@@](O)(C(=O)CO)C[C@@H]3O[C@H]1C[C@H](N)[C@H](O[C@H]2CCCCO2)[C@H](C)O1 | 168 and 501 | 230 and 410 | 435 | 6.61 µM | 5.25 µM and 9.34 µM | 20.9 µM
O=C(c1ccc(Nc2nccc(-c3cc4ccccc4s3)n2)cc1)N1CCC(N2CCCC2)CC1 | 521 | 446 | 462 | 7.42 µM | 9.34 µM | 6.61 µM
N/C(=N\C(=O)c1nc(Cl)c(N)nc1N)NCc1ccccc1 | 370 | 322 | 396 | 8.33 µM | 10.5 µM | 11.8 µM
NC1=C(Cl)C(=CC=N1)OC2=C(F)C=C(NC(=O)\C3=C\N\C=C(C3=O)\C4=CC=C(F)C=C4)C=C2 | 502 | 437 | 490 | 16.6 µM | 14.8 µM | 13.2 µM
Cc1cnc(Nc2ccc(CN3CCOCC3)cc2)nc1Nc1cccc([S+](=O)([O-])NC(C)(C)C)c1 | 509 | 445 | 492 | 11.8 µM | 20.9 µM | 9.34 µM
CC(C)c1ccc(Cn2ccc3c4c(N)nc(NC5CC5)nc4ccc32)cc1 | 399 | 327 | 335 | 2.95 µM | 7.42 µM | 2.95 µM
CCCCNc1ncc2c(-c3ccc(CN4CCN(C)CC4)cc3)cn([C@H]3CC[C@H](O)CC3)c2n1 | 544 | 476 | 481 | 7.42 µM | 16.6 µM | 10.5 µM
CNC(=O)c1ccccc1Sc1ccc2c(/C=C/c3ccccn3)n[nH]c2c1 | 493 | 368 | 461 | 16.6 µM | 37.2 µM | 3.72 µM
Cn1cc(-c2cnn3c(N)c(Br)c([C@@H]4CCCNC4)nc23)cn1 | 568 | 483 | 471 | 20.9 µM | 20.9 µM | 18.6 µM
Cc1cc2cc(Oc3ccnc(Nc4cccc(C[S+](=O)([O-])NCCN(C)C)c4)n3)ccc2[nH]1 | 480 | 493 | 468 | 23.5 µM | 20.9 µM | 23.5 µM
Cc1cc(F)c(C(=O)Nc2cccc(-c3nncn3C(C)C)n2)cc1-n1cnc(C2CC2)c1 | 360 | 427 | 419 | 11.8 µM | 18.6 µM | 18.6 µM
N=c1c2c(-c3ccccc3)c(-c3ccccc3)n(Cc3ccccc3)c2ncn1[C@H]1CC[C@H](O)CC1 | 531 | 341 | 491 | 18.6 µM | 18.6 µM | 18.6 µM
CC(O)(C#Cc1ccc2c(c1)N(c1nc(N)ncc1Cl)CC2)c1nccs1 (stereo not drawn) | 560 | 494 | 507 | 18.6 µM | 14.8 µM | 16.6 µM
CCCCCCCOc1ccc(CCC(N)(CO)CO)cc1C(F)(F)F | 553 | 446 | 466 | 16.6 µM | 14.8 µM | 9.34 µM
Cc1cccc(Nc2nc(-c3ccncc3)cs2)c1 | 549 | 497 | 531 | 16.6 µM | 20.9 µM | 14.8 µM
CN1CCCN(C(=O)c2cccc(-c3ccc(/C=C4/C(=O)Nc5ccc(Cl)cc54)o3)c2)CC1 | 379 | 392 | 361 | 23.5 µM | 29.5 µM | 20.9 µM
C=CCNC1=C2CC(C)CC(OC)C(O)C(C)/C=C(\C)C(OC(N)=O)C(OC)/C=C/C=C(\C)C(=O)NC(=CC1=O)C2=O (stereo not drawn) | 480 | 410 | 491 | 1.18 µM | 3.32 µM | 10.5 µM
COc1cc(Nc2c(C#N)cnc3cc(OCCCN4CCN(C)CC4)c(OC)cc23)c(Cl)cc1Cl | 451 | 412 | 430 | 8.33 µM | 5.9 µM | 7.42 µM
CC[S+](=O)([O-])N1CCN(c2ccc(Nc3ncc(C(N)=O)c(NC4CC4)n3)cc2)CC1 | 561 | 474 | 499 | 26.3 µM | 20.9 µM | 16.6 µM
